Series [1] concerns HIV-1 NL4-3 DTV. The note with it: read-out: IC50 DTV, P4-CCR5 cells, peptide 2 h before infection, readout three days after infection. The essentials:
(§1)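 P4-CCR5 cells (CD4, CCR5, CXCR4, HIV-1 promoter-driven β-galactosidase) pretreated 2 h with peptide, then infected with virus containing 1 ng p24 antigen and incubated overnight. Cells washed and cultured without peptide; three days post-infection infectivity read by chemiluminescent β-galactosidase assay, in quintuplicate.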

In series [2] the test system is X4-tropic HIV-1 NL4-3. The note with it: read-out: IC50 NL4-3; P4-CCR5 cells, HIV-1 NL4-3, peptide 2 h before infection, readout three days after infection. The essentials:
as §1

A short description of series [3]: Acute toxicity in mice after a single intravenous injection. Format: in vivo, SCID-C.B 17-mice. Conditions: 927 mg per kg body weight. The procedure: Acute toxicity was evaluated with VIR-121 (LEAIPMSIPpEVAFNkPFVF) after a single intravenous injection into the tail vein of SCID-C.B 17-mice. A dose of 927 mg VIR-121 (SEQ ID NO. 2) dissolved in 13.6 ml 0.9 volume % sodium chloride solution per kg body weight (equivalent to 20.4 mg or 272 μL per mouse) was applied. Injection speed was dose within 15 seconds. […] As a control, 3 mice were each treated with a corresponding volume of vehicle (0.9 volume % NaCl). After 24 hours, the animals were sacrificed, dissected and inspected macroscopically. […] No findings were obtained from macroscopic necropsy compared to the control group.

The test system of series [4] is human monocytic THP-1 cells. Kind of series: Cytotoxicity on human cells, WST-1 assay. The note with it: 24 hours, 30, 100, 300 and 1000 μg/mL. The method, then: The cytotoxicity of peptides of the invention was tested by evaluating the viability of human monocytic THP-1 cells. Cytotoxic effects of the peptides were tested by their influence on metabolic activity by means of the WST-1 assay (Roche Diagnostics, Germany). THP-1 cells were incubated with test peptides in a 96-well plate (approx. 25,000 cells per well) for 24 hours in RPMI-1640 medium containing 25 mM L-glutamine and 10 volume % fetal calf serum at 37° C. in an atmosphere with 5 volume % CO2. Ten μl of a WST-1 solution was added to each cavity, and incubation of THP-1 cells was allowed for 2 further hours at corresponding conditions. Metabolically active THP-1 cells reduce WST-1, a light red tetrazolium salt, yielding a soluble yellow formazan salt. The amount of reduced WST-1 correlates directly to the number of living cells, and is measured photometrically at a wavelength of λ=450 nm using a microtiter plate reader (reference wavelength is 630 nm). As a positive control, the known cytotoxic substance cycloheximide was used at a concentration of 50 μg/ml; the cytotoxicity of cycloheximide was set to 100%. […] The cytotoxicity of VIRIP peptides was calculated using the formula Viability [%]=[A450 nm (peptide)−A450 nm (cycloheximide)]/[A450 nm (negative control)−A450 nm (cycloheximide)]*100 and was correlated to the averaged viability of untreated THP-1 cells. […]

Series [5] concerns the target T1, synthetic fusion peptide of HIV gp41 (Human immunodeficiency virus type 1 group M subtype B, UniProt P04578).
T1 construct: The fusion peptide is the very amino-terminal part of gp41 consisting of about 30 amino acid residues
Nature of the series: Inhibition of fusion peptide-induced hemolysis. Format: cell-based. Conditions: peptides at 1000, 100 and 10 μM preincubated with 100 μM fusion peptide, human erythrocytes, hemoglobin release. The method, then: The synthetic fusion peptide of HIV gp41 causes concentration-dependent hemolysis which can be measured by hemoglobin released by erythrocytes.
Peptides and any other substance binding to the fusion peptide impair its potency to lyse erythrocytes by changing its structural properties. The inhibition of fusion peptide induced hemolysis was tested as follows: Blood from healthy donors was collected in citrate monovettes and the erythrocytes were extracted by a standard centrifugation and washing protocol known to the skilled person. The final erythrocyte-containing pellett was diluted 1:100 with phosphate-saline buffer. To the peptides (10, 100, or 1000 equivalents) 20 μl of a 100 μM fusion peptide solution in 10% DMSO were added and the solution was diluted to 100 μl with phosphate-buffered saline. A 60 min incubation at 37° C. was carried out. After the preincubation the samples were transferred to 96-well plates and 100 μl of the erythrocyte suspension were added and incubated for 60 min at 37° C. […] The 96-well plate is centrifuged 5 min at 2800 rpm and of the supernatant fluid 150 μl were transferred to a flat-bottom microtiter plate, and the absorbance was measured at 450 nm. The percentage hemolysis was calculated by: [(A450 of the peptide treated sample—A450 of buffer treated sample)/(A450 of Tween-20 treated sample—A450 of buffer treated sample)]×100%.

Series [6] deals with gp41 of HIV-1 NL4-3 (HIV-1 NL4-3). Nature of the series: cell-based or functional assay.
For series [7], the target named is gp41 of HIV-1 NL4-3 DTV (HIV-1 NL4-3 DTV). Kind of series: cell-based or functional assay.

The results in this text go back to patent US7655629B2, “Peptides and their use for the treatment of HIV infections” (priority 2002, dated 2010).

“Also recorded” adds a separate entry of the source. Positions of bridges follow the written chain, without caps; N, C: chain ends. Non-standard residues stand in square brackets, D forms with d. Residues, ends and D or L forms follow the SMILES beside them. No end group written: not given here. NMeL = CN[C@@H](CC(C)C)C(=O)O

T1 sequence (P04578 512-532): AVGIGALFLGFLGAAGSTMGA

For the molecule `CC[C@H](C)[C@H](NC(=O)[C@H](C)NC(=O)[C@H](CCC(=O)O)NC(=O)[C@@H](N)CC(C)C)C(=O)N1CCC[C@H]1C(=O)N[C@@H](CCSC)C(=O)N[C@@H](CO)C(=O)N[C@H](C(=O)N1CCC[C@H]1C(=O)N1CCC[C@@H]1C(=O)N[C@@H](CCC(=O)O)C(=O)N[C@H](C(=O)N[C@@H](C)C(=O)N[C@@H](Cc1ccccc1)C(=O)N[C@@H](CC(N)=O)C(=O)N[C@@H](CCCCN)C(=O)N1CCC[C@H]1C(=O)N[C@@H](Cc1ccccc1)C(=O)N[C@H](C(=O)N[C@@H](Cc1ccccc1)C(=O)O)C(C)C)C(C)C)[C@@H](C)CC` [VIR-121, LEAIPMSIPpEVAFNKPFVF] (H-LEAIPMSIP[dP]EVAFNKPFVF-OH), the IC50 in series [1] amounted to 1.79 µM; in series [2] it was 0.37 µM. In addition, the changes of behaviour result in series [3] (24 hours observation) is listed as “No changes of behaviour”. Also, the “macroscopic necropsy / pathological examination” value in series [3] (sacrificed after 24 hours) is “did not reveal any abnormalities; also recorded: No findings”. Also, in series [3] (tail vein, 24 hours observation), the “clinical signs (motility, dyspnea, ataxia, muscle tone)” value is on record as “no signs of reduced or increased motility, dyspnea, ataxia, nor a reduced or increased muscle tone”.

Consider `CC[C@H](C)[C@H](NC(=O)[C@H](C)NC(=O)[C@H](CCC(=O)O)NC(=O)[C@@H](N)CC(C)C)C(=O)N1CCC[C@H]1C(=O)N[C@H]1CSSC[C@@H](C(=O)N[C@H](C(=O)N[C@@H](Cc2ccccc2)C(=O)N[C@@H](Cc2ccccc2)C(=O)N[C@@H](CC(N)=O)C(=O)N[C@@H](CCCCN)C(=O)N2CCC[C@H]2C(=O)N[C@@H](Cc2ccccc2)C(=O)N[C@H](C(=O)N[C@@H](Cc2ccccc2)C(=O)O)C(C)C)C(C)C)NC(=O)[C@@H]2CCCN2C(=O)[C@@H]2CCCN2C(=O)[C@H]([C@@H](C)CC)NC(=O)[C@H](CO)NC1=O` [VIR-164] (H-LEAIPCSIPPCVFFNKPFVF-OH; disulfide 6-11), for which the IC50 in series [1] is 0.37 µM; in series [2], 0.34 µM. The “cytotoxic effect on THP-1 cells” value in series [4] is recorded as “free of any cytotoxic effect; also recorded: did not exhibit a cytotoxic effect”. Moreover, the “inhibition of fusion peptide-induced hemolysis” value in series [5] was “Dose dependent inhibition”.

Regarding `CC[C@H](C)[C@H](NC(=O)[C@H](C)NC(=O)[C@H](CCC(=O)O)NC(=O)[C@@H](N)CC(C)C)C(=O)N1CCC[C@H]1C(=O)N[C@H]1CSSC[C@@H](C(=O)N[C@@H](Cc2ccccc2)C(=O)N[C@@H](C)C(=O)N[C@@H](Cc2ccccc2)C(=O)N[C@@H](CC(N)=O)C(=O)N[C@@H](CCCCN)C(=O)N2CCC[C@H]2C(=O)N[C@@H](Cc2ccccc2)C(=O)N[C@H](C(=O)N[C@@H](Cc2ccccc2)C(=O)O)C(C)C)NC(=O)[C@@H]2CCCN2C(=O)[C@@H]2CCCN2C(=O)[C@H]([C@@H](C)CC)NC(=O)[C@H](CO)NC1=O` [VIR-165], in series [1], the IC50 stood at 0.14 µM. For the same molecule, the “cytotoxic effect on THP-1 cells” value in series [4] was “free of any cytotoxic effect; also recorded: did not exhibit a cytotoxic effect”. The “inhibition of fusion peptide-induced hemolysis” value in series [5] was “Dose dependent inhibition”.

B1: VIR-512 (peptide)
peptide: [NMeL]EAIPMSIPPEFLFGKPFVF
In series [6], B1 gave an IC50 NL4-3 (HIV-1 infection of P4-CCR5 cells) of 0.138 µM. This molecule also came in with an IC50 DTV (HIV-1 infection of P4-CCR5 cells) in series [7] of 0.615 µM.
